Biological target: T1, Krokinobacter eikastus rhodopsin 2 (KR2) (Dokdonia eikasta, UniProt N0DKS8)
T1 construct: gene NaR; light-driven sodium pump, membrane protein crystallised in monoolein LCP; expression and purification only cited
T1 sequence (N0DKS8 1-280): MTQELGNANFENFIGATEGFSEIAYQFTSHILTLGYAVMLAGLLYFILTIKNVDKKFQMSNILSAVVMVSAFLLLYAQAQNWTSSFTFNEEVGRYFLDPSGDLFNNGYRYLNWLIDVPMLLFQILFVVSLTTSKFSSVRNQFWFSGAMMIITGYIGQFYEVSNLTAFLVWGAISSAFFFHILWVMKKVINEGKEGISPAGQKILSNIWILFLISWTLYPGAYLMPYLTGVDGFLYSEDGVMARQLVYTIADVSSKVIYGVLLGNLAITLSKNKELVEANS
Test: time-resolved serial femtosecond crystallography (XFEL, room temperature), dark state
Type: binding
Details: covalent, light state 1 us after 575 nm pulse deposited as 8CL8, crystals shifted to pH 9.0, 150 mM NaCl

For `CC1=C(/C=C/C(C)=C/C=C/C(C)=C/C=O)C(C)(C)CCC1` [retinal], the “time-resolved serial femtosecond crystallography (XFEL, room temperature), dark” value was “examining structural changes after photoactivation of its retinal chromophore”.

Source: article PMC10693631, “A multi-reservoir extruder for time-resolved serial protein crystallography and compound screening at X-ray free-electron lasers” (Nature Communications, 2023)
